Source: US11312693B2, “Protease inhibitors” (MEDIVIR AB, priority 2008, dated 2022)

Key:
[1] = Metabolic stability in whole blood; assay type: in vitro ADME; settings: from CLint
Method: Compounds of the invention and the indicated comparative examples were tested for metabolic stability in a cytosol assay in which the compounds were incubated with commercially available human hepatic cytosol fractions and the disappearance of the compound monitored by HPLC or LC/MS. Pooled human liver cytosol fractions are less likely to represent outlier individuals than blood from a single individual and can be stored frozen, unlike whole blood. The cytosol assay thus provides a consistent assay testbed as a guide to the stability of a compound in the in vivo environment, such as when exposed to whole blood.
In short, test compounds (2 μM) are incubated in pooled human liver cytosol (Xenotech LLC Lenexa US, 1 mg/mL protein in 0.1M phosphate buffer, pH 7.4) at 37° centigrade over a one hour period. The incubations are initiated by the addition of 1 mM NADPH co-factor. Timed sub-samples were taken at 0, 20, 40 and 60 minutes and “crash precipitated” by the addition of 3 volumes of ice-cold acetonitrile. The samples were centrifuged at reduced temperature and the supernatants were separated and analyzed by LC-MS-MS.
Alternatively, an analogous stability assay is carried out in human or monkey whole blood and/or commercially available liver microsomes, such as XEN 025.

[2] = In vivo mouse PK, oral administration (FIG. 1); set-up: species or system male C57BI mice; settings: 60 μmol/kg in 1% Methocel A4C, versus Example 2 of WO2008 007107
From the text: FIG. 1 depicts plasma concentration against time for male C57BI mice orally administered a compound of the invention or a compound of the prior art.
Various embodiments of the invention will now be described by way of illustration only with reference to the following Examples and FIG. 1 which depicts plasma concentration against time for male C57BI mice orally administered a compound of the invention or a compound of the prior art.

## CC(C)C[C@H](NC(=O)c1ccc(-c2csc(N3CCN(C)CC3)n2)cc1)C(=O)N1C[C@@H](C)[C@H]2OCC(=O)[C@H]21 [comparative example]
[1]
  estimated / calculated whole blood half life: little over an hour

## C#C[C@@H]1CN(C(=O)[C@H](CC(C)C)NC(=O)c2ccc(-c3nc(N4CCN(C)CC4)sc3F)cc2)[C@@H]2C(=O)CO[C@H]12 [Example 2, N-[1-6-(ethynyl-3-oxo-hexahydro-furo[3,2-b]pyrrole-4-carbonyl)-3-methyl-butyl]-4-[5-fluoro-2-(4-methyl-piperazin-1-yl)thiazol-4-yl]-benzamide]
[2]
  in vivo exposure (whether measured as Cmax or AUC): very much greater
